Measurements: patent publication US8080252B2, “Compounds and methods of modulating angiogenesis” (The Cleveland Clinic Foundation, priority 2006, dated 2011)
Non-standard residues stand in square brackets, D forms with d. No end group written: not given here. pY = N[C@@H](Cc1ccc(OP(=O)(O)O)cc1)C(=O)O

Columns and labels:
[1] = tested on: HUVECs; assay: Cell adhesion assay of HUVECs on vitronectin (Example 5); assay type: cell-based, Human
Method: Cells were washed twice with sterile PBS and re-suspended in DMEM. The cell suspensions were added to ligand-coated wells and placed in humidified incubator for 45 min. Wells were gently washed three times with DMEM and photographs were taken. The numbers of attached and spread cells per field were counted.

[2] = tested on: HUVECs; assay: Cell migration assay of HUVECs on vitronectin, VEGF as agonist (Example 5); assay type: cell-based, Human; conditions: vitronectin as substrate
Method: To assess the role of Src-mediated β3 integrin tyrosine phosphorylation in αvβ3 integrin dependent EC migration, HUVECs transfected with various forms of Src were evaluated in migration assays using VEGF as an agonist and vitronectin as a substrate. […] To further evaluate the c-Src mediated β3 integrin cytoplasmic tyrosine motifs phosphorylation in αvβ3 integrin dependent endothelial cell migration, wild type and DiYF mouse lung microvascular endothelial cells were transfected with wild type, dominant negative and catalytically active form of c-Src and stimulated with VEGF (FIG. 23 B).
Transwell tissue culture inserts were coated with αvβ3 integrin ligand vitronectin for 24 h at 4° C. Endothelial cells were transfected with various forms of c-Src or treated with inhibitors and were trypsinized; then 1×10^5 cells were added into each well. Cells were allowed to migrate for 12 h and fixed with 70% methanol for 15 min and stained with Giemsa. The non-migrated cells adhered to the top surface were removed and three random 10× fields were photographed using an inverted phase contrast microscopy.

[3] = target: T1, c-Src (Homo sapiens, UniProt P12931); assay: In vitro kinase assay, c-Src phosphorylation of β3 integrin cytoplasmic domain or peptides; assay type: biochemical; conditions: [γ-32P] ATP incorporation
T1 construct: c-Src was immunoprecipitated from VEGF-stimulated HUVEC; endogenous in cells; host or cells: HUVEC (immunoprecipitate)
T1 sequence (P12931 whole entry, the tested form may be a part): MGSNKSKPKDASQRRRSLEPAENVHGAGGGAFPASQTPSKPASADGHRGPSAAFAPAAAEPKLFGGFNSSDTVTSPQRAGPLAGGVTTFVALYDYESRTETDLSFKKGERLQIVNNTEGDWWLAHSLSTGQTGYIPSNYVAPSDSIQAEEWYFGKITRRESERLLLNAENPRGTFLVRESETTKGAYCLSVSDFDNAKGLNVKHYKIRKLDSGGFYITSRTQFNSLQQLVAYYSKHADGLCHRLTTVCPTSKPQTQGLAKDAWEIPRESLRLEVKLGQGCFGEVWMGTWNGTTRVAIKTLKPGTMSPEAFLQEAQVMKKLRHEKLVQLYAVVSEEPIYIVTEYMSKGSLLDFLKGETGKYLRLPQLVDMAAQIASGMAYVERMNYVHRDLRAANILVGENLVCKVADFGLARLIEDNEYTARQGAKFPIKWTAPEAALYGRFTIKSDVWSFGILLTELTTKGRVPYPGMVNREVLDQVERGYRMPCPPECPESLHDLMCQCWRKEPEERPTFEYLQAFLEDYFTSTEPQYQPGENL
From the text: Principle mechanism by which integrins appear to mediate the transfer of information from extracellular environment to intracellular milieu is through phosphorylation of β-subunit at cytoplasmic tyrosine motifs. Ligand occupancy of αvβ3 is a prerequisite for the tyrosine phosphorylation events and implying an important role for outside-in integrin signaling in this process. To examine whether c-Src can directly mediate β3 integrin tyrosine phosphorylation, c-Src was immunoprecipitated from VEGF-stimulated HUVEC. Immunocomplex were incubated with a full-length purified β3 integrin cytoplasmic domain, and [γ-^32P] ATP incorporation into was monitored. […] Recombinant purified c-Src also phosphorylated the β3 integrin whereas no phosphorylation was observed without the substrate, indicating the specificity of the reaction (lane 1 and 5). […] To further investigate whether c-Src phosphorylates Tyr-747 or Tyr-759 of β3 integrin or both residues, kinase assay were performed using peptide derived from these two distinct sites of β3 integrin as substrates (FIG. 20 E). […] In the presence of Tyr-747/Tyr-759 β3 integrin cytoplasmic peptide, a dramatic increase in [γ-^32P] ATP incorporation was observed as compared to control peptides devoid of tyrosine motifs. Similar results were observed using purified recombinant c-Src protein. As anticipated, [γ-^32P] […]

[4] = tested on: β3 integrin; assay: β3 integrin tyrosine phosphorylation (Tyr-747 and 759) in HUVECs, Western blot; assay type: cell-based, Human; conditions: adherent endothelial cells plated on vitronectin
Method: αvβ3 integrin is expressed on proliferating endothelial cells during angiogenesis and vascular remodeling and the blockade of αvβ3 integrin suppressed angiogenesis in several in vivo models. Therefore, we assessed whether the blockade of αvβ3 affected tyrosine phosphorylation of β3 subunit. […] Cells were also treated with non-immune IgG as control. These cells were washed and further induced with VEGF for 5 min at 37° C. Cell lysates were analyzed for phosphorylation of β3 integrin (Tyr-747 and 759). […] Basal level of β3 integrin tyrosine phosphorylation remains unaffected irrespective of different blocking antibody treatment. To further examine consequences of αvβ3 integrin blocking antibodies, cell lysates were analyzed for tyrosine phosphorylation of VEGFR-2 (Tyr-1175).
Cytoplasmic domains of integrin β subunits are highly conserved and represents region of structural homology between the various groups. […] Cell lysates were analyzed for the phosphorylation of β3 integrin. […]
Cells were lysed in immunoprecipitation lysis buffer (1% Noniodet P-40, 150 mM NaCl, 50 mM Tris-HCL (pH 7.8), 2 mM EDTA, 10 mM NaF, 10 mM Na2P2O7, 2 mM Na3VO4 10 μg/mL leupeptin, 4 μg/mL pepstatin and 0.1 U/mL aprotinin). […] Bands were analyzed by densitomeric analysis using Kodak 1D software and fold changes were indicated.

[5] = tested on: angiogenesis in VEGF-A-containing Matrigel; assay: Matrigel plug assay, neovascularization by hemoglobin assay (Example 4); assay type: in vivo; conditions: 50 mM peptide in 500 μL Matrigel with VEGF (60 ng/mL) and heparin, subcutaneous, 7 days, C57/Bl6 mice
Method: Matrigel plug assays were performed in age- and sex-matched C57/Bl6 background mice. Each animal received an abdominal subcutaneous injection of 500 μL Matrigel mixed with VEGF (60 ng/mL), heparin (60 units/mL) and 50 mM of control ([…] G DTANNPL […]-COOH) (SEQ ID NO: 14) or beta-3 integrin cytoplasmic domain inhibitory peptide ([…] G DTANNPL Yp […]-COOH) (SEQ ID NO: 2). After 7 days, the animals were euthanized and dissected. Matrigel plugs were removed and digested using 5 mL Drabkin reagent and neovascularization was assessed using a hemoglobin assay as per the manufacturer's protocol (FIG. 16).

Row | Molecule | effect on cell adhesion to vitronectin [1] | effect on EC migration triggered by VEGF [2] | effect on phosphorylation of β3 integrin cytoplasmic domain by immunoprecipitated c-Src [3] | effect on β3 integrin tyrosine phosphorylation [4] | hemoglobin concentration in Matrigel plugs, fold lower compared to control peptide [5]
1 | CN(C)S(=O)(=O)c1ccc2c(c1)C(=Cc1cc3c([nH]1)CCCC3)C(=O)N2 [SU6656, 2-oxo-3(4,5,6,7-tetrahydro-1-H-indol-2-ylmethylene)-2,3-dihydro-1H-indole-5-sulfonic acid dimethylamide] | caused impairment of cell adhesion to vitronectin | reduced EC migration triggered by VEGF | blocked this process | completely blocked | 
2 | YGRKKRRQRRR G DTANNPL Yp KEATSTFT-COOH (YGRKKRRQRRRGDTANNPL[pY]KEATSTFT-OH; N-terminus assumed; SMILES CC(C)C[C@H](NC(=O)[C@@H]1CCCN1C(=O)[C@H](CC(N)=O)NC(=O)[C@H](CC(N)=O)NC(=O)[C@H](C)NC(=O)[C@@H](NC(=O)[C@H](CC(=O)O)NC(=O)CNC(=O)[C@H](CCCNC(=N)N)NC(=O)[C@H](CCCNC(=N)N)NC(=O)[C@H](CCCNC(=N)N)NC(=O)[C@H](CCC(N)=O)NC(=O)[C@H](CCCNC(=N)N)NC(=O)[C@H](CCCNC(=N)N)NC(=O)[C@H](CCCCN)NC(=O)[C@H](CCCCN)NC(=O)[C@H](CCCNC(=N)N)NC(=O)CNC(=O)[C@@H](N)Cc1ccc(O)cc1)[C@@H](C)O)C(=O)N[C@@H](Cc1ccc(OP(=O)(O)O)cc1)C(=O)N[C@@H](CCCCN)C(=O)N[C@@H](CCC(=O)O)C(=O)N[C@@H](C)C(=O)N[C@H](C(=O)N[C@@H](CO)C(=O)N[C@H](C(=O)N[C@@H](Cc1ccccc1)C(=O)N[C@H](C(=O)O)[C@@H](C)O)[C@@H](C)O)[C@@H](C)O; listed as Homo sapiens) [SEQ ID NO: 2] |  |  |  |  | at least 3.5 fold
